Test results reported in patent US7732437B2, “Use of anti-histaminics for acute reduction of elevated intracranial pressure” (Janssen Pharmaceutica, NV., priority 2001, dated 2010).
Read-outs that look alike come from different tables or passages of the source. Marks after values point to notes of the source that are not given here.

What was measured:
non-traumatised rats = experiment: ICP and blood pressure in non-traumatized rats; format: in vivo, rat; details: i.v. 0.5 mg/kg/min 10 minutes, then 0.1 mg/kg/min 50 min; anaesthetised
Experimental: For comparison, two commercially available H2-agonists (dimaprit and impromidine) were also tested by infusion into non-traumatized rats, using a dose of 0.5 mg/kg/min for 10 minutes for dimaprit and increasing doses up to 3.75 mg/kg/hour for impromidine.
Rats The effect of Compound 2, Compound 1 and Racemate (comp. 1 and comp. 2) on ICP, MABP and CPP was tested in anaesthetised non-traumatised rats. […] Conclusion

[1] = system: Sprague-Dawley rats with closed head injury; experiment: Closed Head Injury (CHI) model, severe head injury; details: for CPP (%), average change over treatment period, median (95% C.I.) / ETCO2 (%), average change over treatment period, median (95% C.I.) / ICP (%), average change over treatment period, % change of initial value, median (95% C.I.) / MABP (%), average change over treatment period, median (95% C.I.) / Resp. rate(%), average change over treatment period, median (95% C.I.) / Heart rate(%), average change over treatment period, median (95% C.I.): 0.5 mg/kg/min 10 min, then 0.1 mg/kg/min 50 min, start 20 min after severe CHI, n = 10; for Effect on ICP: 0.5 mg/kg/min for 10 min, first 15 minutes, 6 rats
Description: (§1) A clinically relevant rat model for traumatic brain injury was used to test the compounds according to the invention and the commercially available compounds. […] Trauma was induced in intubated, isoflurane anesthetized (1.5% isoflurane in a mixture of 30% O2 and 70% N2O) Sprague-Dawley rats (380-400 g) stereotaxically positioned on a table mounted on 4 springs. A 400 g steel cylinder, protected with a 9 mm diameter silicon disc, was dropped on the unprotected skull from a height of either 70 cm or 50 cm (respectively ‘severe’ and ‘moderate’ head injury). The impact area was centered between bregma and lamda. ICP was recorded using a Codman microsensor probe inserted in the parietal cortex. […] The severe head injury mode was used for the evaluation of pharmacological effects immediately after trauma (screening procedure). […] In pharmacological studies, animals with a pathological ICP between 12.5 and 35 mm Hg were included. The changes in ICP, mean arterial blood pressure (MABP) and cerebral perfusion pressure CPP (=MABP—CPP) were expressed as percentage of the initial value at onset of the treatment.
(§2) On a weekly base, 4 treated groups of 3 rats were compared with 3 saline treated animals. Since conventional statistical methods require a larger amount of animals, a sequential procedure was used. Sequential methods operate in different stages. At each stage, a group of animals was selected as homogeneous as possible. Animals were randomly allocated to either drugs or saline. […] Given the biological relevant level of activity that must be detected, the expected fraction of false positive and negative results was known and fixed. A sequential two-sample grouped rank test was used.
(§3) Treatment was started at 20 min after severe head injury and involved administering a dose of 0.5 mg/kg/min during 10 minutes, followed by 0.1 mg/kg/min during 50 min.
(§4) Ranitidine was infused for 6 min at a dose of 2 mg/kg/min in the rat CHI-model after inflicting severe head injury. Solvent (NaCl+H2T) was given at the same rate. In each group, 6 rats were treated. […] The percentage of reduction are calculated as % change of the ICP recorded at the onset of the treatment and at the end of the infusion.
(§5) A number of commercially available H1- and H2-antagonists was infused for 10 min at a dose of 0.5 mg/kg/min in the rat CHI-model after inflicting severe head injury. Solvent (NaCl+H2T) was given at the same rate. In each group, 6 rats were treated.

[2] = system: Sprague-Dawley rats with closed head injury; experiment: Closed Head Injury (CHI) model, moderate head injury, treatment 24 h after trauma; format: in vivo, rat; details: for effect on saturation of brain haemoglobin with oxygen HbSat (NIRS) / effect on the redox state of CytOx (NIRS) / effect on total brain haemoglobin concentration [HbTot] (NIRS): i.v. 0.5 mg/kg.min 10 min, then 0.1 mg/kg.min 45 min, 24 h after moderate head injury
Description: The impact area was centered between bregma and lamda.
Near-infrared spectroscopy (NIRS) of the rat brain ‘in vivo’ allows to quantify non-invasively saturation of brain haemoglobin with oxygen (HbSat) and total brain haemoglobin concentration ([HbTot]). The latter is a measure for cerebral blood volume (CBV). Changes in the redox state of the mitochondrial enzyme cytochrome oxidase (CytOx), an indicator for tissue oxygenation, can also be monitored.
HbSat is not affected by compound 1 and the racemate (Comp. 1 and Comp. 2).
The effects of treatment with Compound 2 (i.v. infusion at a dose of 0.1 mg/kg.min during 30 min) at 24 h after moderate trauma were studied using different anesthetics (isoflurane, chloralhydrate, pentobarbital). When chloralhydrate (400 mg/kg i.p) is used as anesthetic, ICP decreases to 75% of initial value and MABP gradually increases to 110% of initial value (medians, n=6). […] Barbiturates also reduce the ICP and an important additional effect can be obtained with the compound.

[3] = system: rabbits with cortical cold lesion; experiment: Cold lesion-induced rise of ICP in rabbits; format: in vivo, rabbit; details: 2 mg/kg/min for 10 min, one day after cryo-lesion
Experimental: Cryo-lesions were induced in adult rabbits to obtain a pathological ICP that is caused by tissue oedema. A 8 mm stainless steel rod was placed at predetermined coordinates on the exposed skull of deeply anaesthetised rabbits and cooled for 10 min with liquid nitrogen. One day later the animals were re-anaesthetised and ICP and blood pressure continuously recorded as described for the rat. After a stabilisation period of 15 min, Compound 1 was infused for 10 min at a dose of 2 mg/kg/min. Solvent (preclinical formulation containing 10% HP-β-CD, pH 4) was given for 10 min at a rate of 2 ml/min.

histamine H2-receptor = target: T1, histamine H2-receptor (Cavia porcellus, UniProt P47747); experiment: Radioligand binding, histamine H2-receptor, guinea pig striatum cells, [125I]APT; details: [125I]APT 0.1 nM, 150 min at 22° C., read-out: H2-antagonist activity (pIC50) (converted)
T1 construct: using guinea pig striatum cells and [^125I]APT as the radioligand; from tissue; host or cells: guinea pig striatum

[4] = target: T2, human histamine H1-receptor (Homo sapiens, UniProt P35367); experiment: Radioligand binding, histamine H1-receptor, competitive inhibition of [3H]Pyrilamine; details: CHO-cells transfected with the human histamine H1-receptor, read-out: H1-antagonist activity (pIC50) (converted)
T2 construct: expressed in transfected cells; host or cells: CHO cells
Experimental: Competitive inhibition of [^3H] […] Incubation was done during 150 min at 22° C.

[5] = system: Sprague-Dawley rats with closed head injury; details: for effect on the lowering of the blood pressure: rat, in vivo
Description: as §1, §2, §3, §4, §5

[6] = system: traumaticaly induced brain edema; details: prior treatment; cited from earlier work
[7] = i.v. 1 mg/kg/min during 10 min, repeated, start 20 min after severe head injury
[8] = continuous infusion of 0.1 mg/kg.min
[9] = i.v. 0.1 mg/kg.min 30 min, chloralhydrate 400 mg/kg i.p. anesthesia, n=6
[10] = i.v. 0.1 mg/kg.min 30 min, pentobarbital 60 mg/kg i.p. anesthesia, n=6

T2 sequence (P35367 whole entry): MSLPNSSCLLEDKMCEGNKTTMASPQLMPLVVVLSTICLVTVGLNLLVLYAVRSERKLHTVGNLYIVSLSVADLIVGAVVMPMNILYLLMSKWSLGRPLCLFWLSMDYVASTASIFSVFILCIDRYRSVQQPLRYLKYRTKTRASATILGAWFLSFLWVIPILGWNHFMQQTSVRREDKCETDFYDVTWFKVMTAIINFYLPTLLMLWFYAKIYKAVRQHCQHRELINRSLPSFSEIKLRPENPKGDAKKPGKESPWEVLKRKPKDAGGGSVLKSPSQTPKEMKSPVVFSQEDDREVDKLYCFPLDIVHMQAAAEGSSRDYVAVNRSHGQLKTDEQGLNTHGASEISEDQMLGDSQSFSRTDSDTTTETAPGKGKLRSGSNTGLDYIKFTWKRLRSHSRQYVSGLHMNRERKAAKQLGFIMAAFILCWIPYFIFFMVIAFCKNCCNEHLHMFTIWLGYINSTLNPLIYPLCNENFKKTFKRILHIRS
T1 sequence (P47747 whole entry): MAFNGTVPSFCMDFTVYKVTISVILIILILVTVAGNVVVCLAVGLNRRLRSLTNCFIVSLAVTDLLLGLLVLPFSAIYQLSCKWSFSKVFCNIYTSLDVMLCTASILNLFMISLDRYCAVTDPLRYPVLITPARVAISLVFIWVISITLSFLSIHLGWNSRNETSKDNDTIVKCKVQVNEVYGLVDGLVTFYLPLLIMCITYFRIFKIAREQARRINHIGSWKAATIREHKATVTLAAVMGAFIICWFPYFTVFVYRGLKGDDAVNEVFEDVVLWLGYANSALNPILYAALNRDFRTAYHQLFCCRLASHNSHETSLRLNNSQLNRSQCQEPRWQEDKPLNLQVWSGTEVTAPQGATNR

## Cc1nc2n(C)c3ccccc3n2c(=O)c1CCN1CCC(C2c3ccccc3CCn3c2nc2ccccc23)CC1Cc1ccccc1 (racemic) [Racemate (comp. 1 and comp. 2), pyrimido[1,2-a]benzimidazol-4(10H)-one, 3-[2-[4-(11 ,12-dihydro-6H-benzimidazo[2,1-b][3]benzazepin-6-yl)-2-(phenylmethyl)-1-piperidinyl]ethyl]-2,10-dimethyl (E)-2-butenedioate (2:3) hydrate (1:1)]
non-traumatised rats
  effect on ICP, MABP and CPP in non-traumatised rats: comparable with those obtained in the traumatized animals
[1]
  CPP (%), average change over treatment period, median (95% C.I.): 7.5 (−2.4; 15.5) %
  ETCO2 (%), average change over treatment period, median (95% C.I.): 2.4 (−7.8; 3.8) %
  ICP (%), average change over treatment period, % change of initial value, median (95% C.I.): −19.1 (−24.9; −10.8)* %
  MABP (%), average change over treatment period, median (95% C.I.): 0.6 (−5.1; 8.5) %
  Resp. rate(%), average change over treatment period, median (95% C.I.): 9.6 (3.0; 14.8) %
[2]
  effect on saturation of brain haemoglobin with oxygen HbSat (NIRS): not affected
  effect on the redox state of CytOx (NIRS): do not have an effect
  effect on total brain haemoglobin concentration [HbTot] (NIRS): do not have a significant effect

## Cc1nc2n(C)c3ccccc3n2c(=O)c1CCN1CCC(C2c3ccccc3CCn3c2nc2ccccc23)CC1Cc1ccccc1 (single isomer, unassigned) [Compound 1, pyrimido[1,2-a]benzimidazol-4(10H)-one, 3-[2-[4-(11 ,12-dihydro-6H-benzimidazo[2,1-b][3]benzazepin-6-yl)-2-(phenylmethyl)-1-piperidinyl]ethyl]-2,10-dimethyl (E)-2-butenedioate (2:3) hydrate (1:1)]
non-traumatised rats
  effect on ICP, MABP and CPP in non-traumatised rats: comparable with those obtained in the traumatized animals
[3]
  ICP after termination of infusion: significant ICP reduction
  ICP during infusion: no immediate decrease in ICP
  blood pressure during infusion: blood pressure drops
[1]
  CPP (%), average change over treatment period, median (95% C.I.): −1.9 (−8.9; 0.4) %
  ETCO2 (%), average change over treatment period, median (95% C.I.): 2.2 (−0.8; 8.4) %
  Heart rate(%), average change over treatment period, median (95% C.I.): −4.1 (−11.4; 1.9) %
  ICP (%), average change over treatment period, % change of initial value, median (95% C.I.): −15.4 (−22.6; −11.5)* %
  MABP (%), average change over treatment period, median (95% C.I.): −3.6 (−11.9; −1.5) %
  Resp. rate(%), average change over treatment period, median (95% C.I.): 5.3 (−3.3; 13.6) %
[1]; 0.125, 0.25, 0.5, 1 and 2 mg/kg/min for 10 min
  effect on ICP during 10 min infusion (dose response): sustained dose-dependent decrease of ICP
[1]; 0.125-2 mg/kg/min for 10 min
  effect on ICP in the 10 min period following the infusion: highly significant dose-dependent effect on ICP remains present
[1]; 10 min infusion
  dose yielding a statistically significant larger reduction in ICP than solvent: ≥ 1 mg/kg/min
[1]; [7]
  effect of repeated infusion on ICP: rapid reduction of ICP
  effect of repeated infusion on blood pressure: Blood pressure drops during Compound 1 treatment but is restored again after this episode
Histamine H2-receptor
  IC50: 1 µM
[2]
  effect on saturation of brain haemoglobin with oxygen HbSat (NIRS): not affected
  effect on the redox state of CytOx (NIRS): do not have an effect
  effect on total brain haemoglobin concentration [HbTot] (NIRS): do not have a significant effect
[4]
  IC50: 0.2 µM

## Cc1nc2n(C)c3ccccc3n2c(=O)c1CCN1CCC(C2c3ccccc3CCn3c2nc2ccccc23)CC1Cc1ccccc1 (single isomer, unassigned) [Compound 2, pyrimido[1,2-a]benzimidazol-4(10H)-one, 3-[2-[4-(11 ,12-dihydro-6H-benzimidazo[2,1-b][3]benzazepin-6-yl)-2-(phenylmethyl)-1-piperidinyl]ethyl]-2,10-dimethyl (E)-2-butenedioate (2:3) hydrate (1:1)]
non-traumatised rats
  effect on ICP, MABP and CPP in non-traumatised rats: comparable with those obtained in the traumatized animals
[1]
  CPP (%), average change over treatment period, median (95% C.I.): 24.2 (0.9; 43.6)* %
  ETCO2 (%), average change over treatment period, median (95% C.I.): −4.4 (−8.9; 2.3)* %
  Heart rate(%), average change over treatment period, median (95% C.I.): −9.6 (−21.8; 0.7) %
  ICP (%), average change over treatment period, % change of initial value, median (95% C.I.): −15.3 (−20.0; −9.5)* %
  MABP (%), average change over treatment period, median (95% C.I.): 18.8 (−2.0; 31.0)* %
  Resp. rate(%), average change over treatment period, median (95% C.I.): 6.6 (−1.3; 14.6) %
[1]; [8]
  increases in MABP observed: ≤ 20%
  maximal reduction of ICP versus infusion preceded by loading dose: comparable
  time required to obtain maximal reduction of ICP (median): 30 min
[1]; continuous infusion of 0.1 mg/kg.min, n=6
  median MABP increase at the end of the infusion: 9%
[2]; [9]
  ICP, % of initial value (median): 75 % of initial value
  MABP, % of initial value (median): 110 % of initial value
[2]; [10]
  ICP, % of initial value (median): 64 % of initial value
  MABP, % of initial value at the end of the infusion (median): 141 % of initial value
[2]
  effect on saturation of brain haemoglobin with oxygen HbSat (NIRS): small but statistically significant reduction
  effect on the redox state of CytOx (NIRS): do not have an effect
  effect on total brain haemoglobin concentration [HbTot] (NIRS): do not have a significant effect
[4]
  IC50: 0.794 µM

## CN(C)CCC(c1ccc(Cl)cc1)c1ccccn1 (stereo not shown) [Chlorpheniramine, reference compound]
[1]; severe head injury
  Effect on ICP: −
[5]
  effect on the lowering of the blood pressure: no or little effect

## CN/C(=N/CCSCc1nc[nH]c1C)NC#N [Cimetidine, cimetidine]
[6]
  increased brain water content and elevated plasma and brain histamine levels: prevented

## CN(C)CCOC(c1ccccc1)c1ccccc1 [Diphenhydramine, diphenhydramine, reference compound]
[1]; 1 mg/kg/min for 10 min, severe head injury, three rats
  reduction in ICP: 34%
[5]
  effect on the lowering of the blood pressure: no or little effect

## OCCOCCN1CCN(C(c2ccccc2)c2ccc(Cl)cc2)CC1 (stereo not shown) [Hydroxyzine]
[5]; iv, 0.5 mg/kg, 0.25 h
  Effect on ICP: −

## CC(CN1c2ccccc2Sc2ccccc21)N(C)C (stereo not shown) [Promethazine, reference compound]
[1]; severe head injury
  Effect on ICP: −
[5]
  effect on the lowering of the blood pressure: no or little effect

## COc1ccc(CN(CCN(C)C)c2ccccn2)cc1 [Pyrilamine]
[6]
  increased brain water content and elevated plasma and brain histamine levels: failed to reduce the increased brain water content
[5]
  effect on the lowering of the blood pressure: no or little effect

## CNC(=C[N+](=O)[O-])NCCSCc1ccc(CN(C)C)o1 [Ranitidine, ranitidine, reference compound]
Histamine H2-receptor
  IC50: 3.16 µM

## c1cc(CN2CCCCC2)cc(OCCCNc2nc3ccccc3s2)c1 [Zolantidine, reference compound]
[1]; severe head injury
  Effect on ICP: −
[5]
  effect on the lowering of the blood pressure: no or little effect
